Measured values published in PubChem BioAssay AID330 (DTP/NCI, 2004).
Several values for one entry are separate records, joined by “and”; a condition that tells them apart may be missing. Identical values can stand only once. Inconclusive results and toxic doses are left out.

Tested on: P388 leukemia ip, CD2F1 mice, survival T/C
Experiment: NCI In Vivo Anticancer Drug Screen. Data for tumor model P388 Leukemia (intraperitoneal) in CD2F1 (CDF1) mice
Conditions: endpoint: median survival time, higher = longer survival
Method in brief: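 Mice carrying the transplanted tumor received test compound or vehicle. Survival was recorded in each group, and the value is the treated-group measurement divided by that of the vehicle-treated control group.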

[1] = dose: 100.0 mg/kg/injection, schedule: Q04DX002 (ip), vehicle: Klucel (hydroxypropylcellulose) (HPC)
[2] = dose: 200.0 mg/kg/injection, schedule: Q04DX002 (ip), vehicle: Klucel (hydroxypropylcellulose) (HPC)
[3] = dose: 400.0 mg/kg/injection, schedule: Q04DX002 (ip), vehicle: Klucel (hydroxypropylcellulose) (HPC)
[4] = dose: 50.0 mg/kg/injection, schedule: Q01DX005 (ip), vehicle: saline with Tween-80
[5] = dose: 100.0 mg/kg/injection, schedule: Q01DX005 (ip), vehicle: saline with Tween-80
[6] = dose: 200.0 mg/kg/injection, schedule: Q01DX005 (ip), vehicle: saline with Tween-80
[7] = dose: 60.0 mg/kg/injection, schedule: Q01DX005 (ip), vehicle: saline
[8] = dose: 120.0 mg/kg/injection, schedule: Q01DX005 (ip), vehicle: saline
[9] = dose: 240.0 mg/kg/injection, schedule: Q01DX005 (ip), vehicle: saline
[10] = dose: 12.5 mg/kg/injection, schedule: Q01DX009 (ip), vehicle: saline
[11] = dose: 25.0 mg/kg/injection, schedule: Q01DX009 (ip), vehicle: saline
[12] = dose: 50.0 mg/kg/injection, schedule: Q01DX009 (ip), vehicle: saline
[13] = dose: 100.0 mg/kg/injection, schedule: Q01DX009 (ip), vehicle: saline
[14] = dose: 100.0 mg/kg/injection, schedule: Q01DX009 (ip), vehicle: saline with Tween-80
[15] = dose: 200.0 mg/kg/injection, schedule: Q01DX009 (ip), vehicle: saline with Tween-80
[16] = dose: 100.0 mg/kg/injection, schedule: Q01DX001 (ip), vehicle: Klucel (hydroxypropylcellulose) (HPC)

For `COc1ccc(C2=C(Cl)C(=O)N(c3ccc(OC)cc3)C(=O)C2(Cl)Cl)cc1`, the T/C [1] was 101 % of control, the T/C [2] was 95 % of control and the T/C [3] was 111 % of control.
With `COCCCNC(=O)c1nc2ccccc2c(=O)n1NC(=O)Cc1ccccc1` the T/C [4] was 95 % of control, the T/C [5] was 95 % of control and the T/C [6] was 95 % of control.
In the case of `O=C1CCC(=O)N1CCCN1CCOCC1`, the T/C [7] is reported as 89 % of control, the T/C [8] is reported as 88 % of control and the T/C [9] is reported as 99 % of control.
In the case of `CNc1nc(NC)nc(NC)n1`, the T/C [10] is reported as 95 % of control, the T/C [11] is reported as 104 % of control and the T/C [12] is reported as 95 % of control. For the same compound, the T/C [13] was 93 % of control.
In the case of `NS(=O)(=O)c1ccc(N=NC2C(=O)N(c3ccccc3)C(=S)N(c3ccccc3)C2=O)cc1`, the T/C (dose: 60.0 mg/kg/injection, schedule: Q01DX005 (ip), vehicle: Klucel (hydroxypropylcellulose) (HPC)) is reported as 100 % of control, the T/C [7] is reported as 106 % of control and the T/C (dose: 120.0 mg/kg/injection, schedule: Q01DX005 (ip), vehicle: Klucel (hydroxypropylcellulose) (HPC)) is reported as 100 % of control. For the same compound, the T/C [8] was 95 % of control, the T/C (dose: 240.0 mg/kg/injection, schedule: Q01DX005 (ip), vehicle: Klucel (hydroxypropylcellulose) (HPC)) was 91 % of control and the T/C [9] was 92 % of control.
For `O=C(NCCCCOc1ccc([N+](=O)[O-])cc1Cl)NC1CCCCC1`, the T/C (dose: 50.0 mg/kg/injection, schedule: Q01DX001 (ip), vehicle: saline with Tween-80) was 90 % of control, the T/C (dose: 100.0 mg/kg/injection, schedule: Q01DX001 (ip), vehicle: saline with Tween-80) was 100 % of control and the T/C (dose: 200.0 mg/kg/injection, schedule: Q01DX001 (ip), vehicle: saline with Tween-80) was 100 % of control.
In the case of `N#CSCc1c(Cl)cccc1Cl`, the T/C (dose: 25.0 mg/kg/injection, schedule: Q01DX009 (ip), vehicle: other) is reported as 104 % of control, the T/C (dose: 50.0 mg/kg/injection, schedule: Q01DX009 (ip), vehicle: other) is reported as 104 % of control and the T/C (dose: 100.0 mg/kg/injection, schedule: Q01DX009 (ip), vehicle: other) is reported as 103 % of control. For the same compound, the T/C (dose: 200.0 mg/kg/injection, schedule: Q01DX009 (ip), vehicle: other) was 113 % of control.
`N=C(N)COCc1ccccc1` was tested, and the T/C [11] was 116 % of control, the T/C [12] was 120 % of control and the T/C [13] was 111 % of control.
For `COc1ccc2nccc(CC(O)C(Cl)(Cl)Cl)c2c1` (stereo not drawn), the T/C [4] was 105 % of control, the T/C [5] was 93 % of control and the T/C [6] was 101 % of control.
With `C=C1CC2(CCCCC2c2ccccc2)OC1=O` (stereo not drawn) the T/C [1] was 97 % of control, the T/C [2] was 103 % of control and the T/C [3] was 103 % of control.
`COc1cc(C)c(C2NC(=O)c3ccccc3N2)cc1C` (stereo not drawn) was tested, and the T/C (dose: 50.0 mg/kg/injection, schedule: Q01DX005 (ip), vehicle: Klucel (hydroxypropylcellulose) (HPC)) was 104 % of control and 111 % of control, the T/C (dose: 100.0 mg/kg/injection, schedule: Q01DX005 (ip), vehicle: Klucel (hydroxypropylcellulose) (HPC)) was 103 % of control and 112 % of control and the T/C (dose: 172.0 mg/kg/injection, schedule: Q01DX005 (ip), vehicle: Klucel (hydroxypropylcellulose) (HPC)) was 109 % of control. The T/C (dose: 200.0 mg/kg/injection, schedule: Q01DX005 (ip), vehicle: Klucel (hydroxypropylcellulose) (HPC)) was 112 % of control and 121 % of control, the T/C (dose: 288.0 mg/kg/injection, schedule: Q01DX005 (ip), vehicle: Klucel (hydroxypropylcellulose) (HPC)) was 118 % of control and the T/C (dose: 800.0 mg/kg/injection, schedule: Q01DX005 (ip), vehicle: Klucel (hydroxypropylcellulose) (HPC)) was 117 % of control. The T/C (dose: 1333.0 mg/kg/injection, schedule: Q01DX005 (ip), vehicle: Klucel (hydroxypropylcellulose) (HPC)) was 160 % of control.
With `O=C1CN=C(c2ccccn2)c2cc(Cl)ccc2N1CCO` the T/C [14] was 100 % of control and the T/C [15] was 105 % of control.
`Cc1cccc(NCc2ccccn2)n1` was tested, and the T/C [4] was 103 % of control and the T/C [5] was 103 % of control.
With `O=Nc1ccc(Cn2cc(Br)c(=O)[nH]c2=O)o1` the T/C (dose: 25.0 mg/kg/injection, schedule: Q01DX001 (ip), vehicle: Klucel (hydroxypropylcellulose) (HPC)) was 113 % of control, the T/C (dose: 50.0 mg/kg/injection, schedule: Q01DX001 (ip), vehicle: Klucel (hydroxypropylcellulose) (HPC)) was 100 % of control and the T/C [16] was 108 % of control.
`O=C1C(O)=C(Cl)C(=O)C(O)=C1Cl` was tested, and the T/C (dose: 12.5 mg/kg/injection, schedule: Q01DX005 (ip), vehicle: saline) was 111 % of control, the T/C (dose: 25.0 mg/kg/injection, schedule: Q01DX005 (ip), vehicle: saline) was 101 % of control and the T/C (dose: 50.0 mg/kg/injection, schedule: Q01DX005 (ip), vehicle: saline) was 110 % of control. For the same compound, the T/C (dose: 100.0 mg/kg/injection, schedule: Q01DX005 (ip), vehicle: saline) was 90 % of control.
With `CN1C(=O)N(C)C(=O)C(Nc2ccc([N+](=O)[O-])cc2)(SCCO)C1=O` the T/C [4] was 100 % of control, the T/C [5] was 104 % of control and the T/C [6] was 104 % of control.
With `COC(=O)CC1(C(=O)OC)C2=C(CCSC2)N2CCCC21` (stereo not drawn) the T/C (dose: 3.75 mg/kg/injection, schedule: Q01DX009 (ip), vehicle: Klucel (hydroxypropylcellulose) (HPC)) was 97 % of control, the T/C (dose: 7.5 mg/kg/injection, schedule: Q01DX009 (ip), vehicle: Klucel (hydroxypropylcellulose) (HPC)) was 97 % of control and the T/C (dose: 15.0 mg/kg/injection, schedule: Q01DX009 (ip), vehicle: Klucel (hydroxypropylcellulose) (HPC)) was 100 % of control. The T/C (dose: 30.0 mg/kg/injection, schedule: Q01DX009 (ip), vehicle: Klucel (hydroxypropylcellulose) (HPC)) was 100 % of control.
With `CC(C)(N)COC(=O)c1ccccc1C(=O)O` the T/C (dose: 100.0 mg/kg/injection, schedule: Q01DX001 (ip), vehicle: saline) was 90 % of control, the T/C (dose: 200.0 mg/kg/injection, schedule: Q01DX001 (ip), vehicle: saline) was 95 % of control and the T/C (dose: 400.0 mg/kg/injection, schedule: Q01DX001 (ip), vehicle: saline) was 104 % of control.
With `N#C/C(=C1C=C/C(=N/O)C=C/1Cl)c1ccccc1` the T/C (dose: 50.0 mg/kg/injection, schedule: Q01DX009 (ip), vehicle: saline with Tween-80) was 95 % of control, the T/C [14] was 93 % of control and the T/C [15] was 94 % of control. The T/C (dose: 400.0 mg/kg/injection, schedule: Q01DX009 (ip), vehicle: saline with Tween-80) was 94 % of control.
In the case of `CNC(=S)/C(C(C)=O)=C(\C)Nc1ccccc1`, the T/C (dose: 50.0 mg/kg/injection, schedule: Q01DX009 (ip), vehicle: Klucel (hydroxypropylcellulose) (HPC)) is reported as 101 % of control, the T/C (dose: 100.0 mg/kg/injection, schedule: Q01DX009 (ip), vehicle: Klucel (hydroxypropylcellulose) (HPC)) is reported as 106 % of control and the T/C (dose: 200.0 mg/kg/injection, schedule: Q01DX009 (ip), vehicle: Klucel (hydroxypropylcellulose) (HPC)) is reported as 106 % of control.
With `COc1cc2c(cc1O)C(CSC)Cc1cc(OC)c(OC)cc1N(C)CCC2` (stereo not drawn) the T/C (dose: 100.0 mg/kg/injection, schedule: Q04DX003 (ip), vehicle: saline with Tween-80) was 93 % of control, the T/C (dose: 200.0 mg/kg/injection, schedule: Q04DX003 (ip), vehicle: saline with Tween-80) was 87 % of control and the T/C (dose: 400.0 mg/kg/injection, schedule: Q04DX003 (ip), vehicle: saline with Tween-80) was 100 % of control.
With `CC(=O)OC1COC(NC(=O)N(CCCl)N=O)C(OC(C)=O)C1OC(C)=O` (stereo not drawn) the T/C (dose: 1.5 mg/kg/injection, schedule: Q01DX009 (ip), vehicle: saline with Tween-80) was 111 % of control, the T/C (dose: 3.0 mg/kg/injection, schedule: Q01DX009 (ip), vehicle: saline with Tween-80) was 121 % of control and the T/C (dose: 6.0 mg/kg/injection, schedule: Q01DX009 (ip), vehicle: saline with Tween-80) was 151 % of control. For the same compound, the T/C (dose: 12.0 mg/kg/injection, schedule: Q01DX009 (ip), vehicle: saline with Tween-80) was 161 % of control, the T/C (dose: 24.0 mg/kg/injection, schedule: Q01DX009 (ip), vehicle: saline with Tween-80) was 272 % of control and the T/C (dose: 48.0 mg/kg/injection, schedule: Q01DX009 (ip), vehicle: saline with Tween-80) was 114 % of control.
In the case of `CN(C)c1ccc(N=Cc2cc[n+](C)cc2)cc1`, the T/C (dose: 6.25 mg/kg/injection, schedule: Q01DX009 (ip), vehicle: saline) is reported as 114 % of control, the T/C [10] is reported as 101 % of control and the T/C [11] is reported as 105 % of control. For the same compound, the T/C (dose: 25.0 mg/kg/injection, schedule: Q04DX003 (ip), vehicle: saline) was 100 % of control, the T/C [12] was 111 % of control and the T/C (dose: 50.0 mg/kg/injection, schedule: Q04DX003 (ip), vehicle: saline) was 107 % of control. For the same compound, the T/C (dose: 100.0 mg/kg/injection, schedule: Q04DX003 (ip), vehicle: saline) was 107 % of control.
`COC(=N)N(C)/N=C/c1ccccc1` was tested, and the T/C [16] was 114 % of control and the T/C (dose: 200.0 mg/kg/injection, schedule: Q01DX001 (ip), vehicle: Klucel (hydroxypropylcellulose) (HPC)) was 115 % of control.
